The subject of one experiment is PR protein expression. As to the kind of experiment: Western blotting for PR in doxorubicin-treated T47D cells expressing inducible PR (PARP cleavage assay). In kind it is cell-based, human. The following applies: doxorubicin 8 uM, 24 h. On the technique in general: In western blotting, separated proteins are transferred to a membrane and probed.
For experiment [1], the system named is PR target genes (CHN2, RGS2, ACOT6) in BT-474 human breast cancer cells. As to the kind of experiment: RT-qPCR of PR target genes in BT-474 cells, with or without MEK inhibitor. In kind it is cell-based. The protocol:
For reverse transcription quantitative polymerase chain reaction (RT-qPCR) assays, 5×10^5 cells/well were plated in 6-well dishes, serum starved in modified IMEM for 1 day before treatments (see individual figures). RNA was extracted using TriPure reagent (Roche, catalog #11667157001) and cDNA was created using the Transcriptor cDNA first-strand cDNA synthesis kit (Roche, catalog #04897030001). Relative expression levels were determined by qPCR assays performed on a Roche LightCycler II using SYBR green master-mix (Roche, catalog #04887352001). Target gene quantification levels were normalized to the expression of standard housekeeper genes: TBP, ACTB, and/or GAPDH. For cells expressing inducible PR, the protocol was the same as above, except prior to ligand treatments, the cells were induced with AP21967 (10^−9 M) for 2 d.
For experiments using MEK inhibitors, BT-474 cells were plated in […] dishes at 5×10^5 cells/well. One day later, the cells were washed and serum starved in modified IMEM for 1d. These cells were pre-treated with the MEK inhibitor U0126 (5 uM, EMD Chemicals, catalog #662005) for 30 min R5020 (10^−8 M) and/or RU486 (10^−7 M) was then added to cell culture wells for 6 h before RNA/protein isolation and RT-qPCR/western blotting was performed, as described above.

Experiment [2] relates to RGS2 expression in T47D cells expressing WT PR or KR PR. As to the kind of experiment: RT-qPCR of PR target genes in T47D cells stably expressing WT or KR PR. The class given is cell-based, human. The settings on record: R5020 6 h. The protocol: (§1) T47Dco parental cell lines were characterized previously (Horwitz et al., 1982). T47D cells stably expressing PR were created by molecular cloning of cDNAs encoding either WT, K388R, S294A, or K388R/S294A PR into a pIRES-neo3 expression vector (Clontech, catalog #631621), followed by transfection of vectors into T47D-Y cells (Sartorius et al., 1994) using FuGENE HD (Roche, catalog #04709713001). Single-cell clones were expanded under high G418 selection (500 ug/ml) and maintained in low G418 selection (200 ug/ml) (EMD Chemicals, catalog #345810). These cells were maintained in complete minimal essential medium (cMEM) supplemented with 5% fetal bovine serum (FBS), 1% non-essential amino acids (NEAA), 1% penicillin/streptomycin, 6 ng/ml insulin (CellGro, catalog #10-010-CV). T47D cells expressing inducible PR were described previously (Hagan et al., 2011). […]
For reverse transcription quantitative polymerase chain reaction (RT-qPCR) assays, 5×10^5 cells/well were plated in 6-well dishes, serum starved in modified IMEM for 1 day before treatments (see individual figures). […] Relative expression levels were determined by qPCR assays performed on a Roche LightCycler II using SYBR green master-mix (Roche, catalog #04887352001). Target gene quantification levels were normalized to the expression of standard housekeeper genes: TBP, ACTB, and/or GAPDH. […]

Experiment [3] deals with PR Ser294 phosphorylation. As to the kind of experiment: Western blotting for PR Ser294 phosphorylation in BT-474 cells. In kind it is cell-based, human. The protocol: as §1, with “2011). Inducible PR expression was achieved by adding AP21967 (10^−9 M, Ariad Pharmaceuticals, Cambridge, Mass.) to cell culture medium for a minimum treatment time of 2 d. MCF-7 cell lines expressing PR were created by transfection of pIRES-neo3 vectors containing cDNA inserts encoding either WT or KR PR into cells using FuGENE HD. Single-cell clones were expanded under high G418 selection and maintained in low G418 selection.” for “2011).”

Experiment [4] has as its system T47D cells expressing inducible PR (iWT, iKR). As to the kind of experiment: MTT proliferation assay in T47D cells expressing inducible PR. The class given is cell-based, human. The following applies: cells expressing iWT or iKR PRs vs un-induced or untreated counterparts; R5020. The protocol:
Cell proliferation was measured using MTT assays (3-[4,5-dimethylthiazol-2-yl]-2,5-diphenyltetrazolium bromide, Sigma catalog #M2128). In 24-well plates, 1×10^4 cells/well were plated in cMEM (inducible PR expression was induced with AP21967 (10^−9 M) for 2 days), cells were washed and steroid starved in modified IMEM supplemented with 5% dextran-coated charcoal-treated (DCC) FBS for 1 day before the addition of R5020 (10^−8 M). At days 0, 2, 4, 6, cell proliferation was determined by adding 60 ul MTT (5 mg/ml) to each 0.5 ml cell culture well for 3 hours, medium was carefully removed and solublization solution (90% v/v DMSO/PBS) was added to lyse the cells. Lysate absorbance (650 and 570 nm) was measured using a plate reader. 650 nm measurements were subtracted from 570 nm measurements and sample means were normalized to day zero.
In general terms: Tetrazolium dyes change colour on reduction, which living cells bring about.

For experiment [5], the system named is PR target genes in T47D cells expressing WT PR, SUMO-deficient PR (KR) or empty vector. As to the kind of experiment: Gene expression profiling (Illumina HT-12v4) of T47D cell lines treated with progesterone or antiprogestins. In kind it is cell-based, human. The following applies: for expression of progesterone-regulated PR target genes: T47D cells expressing SUMO-deficient PR (KR), antiprogestin 10^−7 M alone or plus progesterone 10^−8 M. The protocol:
T47D cells stably expressing pIRES-neo3 empty vector, WT or KR PR were serum starved in modified IMEM (Gibco, catalog #A10488) for 1 day, treated with R5020 (10^−8 M) or vehicle control for 6 h before RNA extraction using a RNeasy kit (QIAgen, catalog #74104). Six h of progestin treatment allowed for substantial PR-dependent gene expression as compared to prior studies (Jacobsen et al., 2005; Richer et al., 2002). DNase I treated (QIAgen, catalog #79254) RNA samples from duplicate experiments were prepared for expression analysis using the Illumina HT-12v4 bead chip platform according to manufacture's protocols. Data were analyzed within R software using the Bioconductor (Gentleman et al., 2004) package called lumi where raw intensities were log2 transformed and quantile normalized. Differentially expressed genes were analyzed using the limma package, where empirical Bayes was used to better estimate the variance of the genes. Gene expression data presented contain log2 normalized intensities and biological comparisons presented (e.g. R5020/vehicle) contain log2 fold change with the Benjamini and Hochberg (BH) adjusted P value (Benjamini and Hochberg, 1995). To generate the heat map in FIG. 1C, unsupervised hierarchical clustering of genes was carried out using heatmap. 2 function in the R package gplots. Clustering was performed using Euclidean distance and complete linkage. Rows were scaled to have mean zero and standard deviation equal to one.
Gene expression profiles in T47D cell lines treated with antiprogestins were obtained using identical methods as described above, except for these notable differences. After serum starvation, cells stably expressing empty vector, WT, or KR PR were treated for 6 hours under one of eight possible conditions: (1) ethanol (vehicle control), (2) progesterone (10^−8 M), (3) RU486 (10^−7 M), (4) aglepristone (10^−7 M), (5) onapristone (10^−7 M), (6) RU486 (10^−7 M) plus progesterone (10^−8 M), (7) aglepristone (10^−7 M) plus progesterone (10^−8 M), or (8) onapristone (10^−7 M) plus progesterone (10^−8 M). Gene expression levels were measured, normalized, analyzed, and heat maps were generated using the methods described above.
Raw microarray data from two independent microarray experiments (both performed using the Illumina HT-12v4 platform described above) were combined and normalized together within R software using the Bioconductor (Gentleman et al., 2004) package called lumi where raw intensities were log 2 transformed and quantile normalized.
Sample Sizes & Composition: For the first analysis, two KR cell replicates were used that had been stimulated with R5020 a synthetic progestin in the first experiment and three KR cell replicates that had been stimulated with progesterone in the second experiment. The same was accomplished regarding the corresponding WT cell replicates. Pertaining to the first analysis, therefore, a sample size of n=5 was used for each of the two groups (KR & WT). Regarding the second analysis, we used three KR cell replicates that had been co-treated with progesterone plus onapristone in the second experiment; and we used three WT cell replicates that had been co-treated with progesterone plus onapristone also in the second experiment (n=3 for each of the two groups). Regarding the third analysis, we used three KR cell replicates that had been co-treated with progesterone plus RU486 in the second experiment; and we used three WT cell replicates that had been co-treated with progesterone plus RU486 also in the second experiment (n=3 for each of the two groups). Regarding the fourth analysis, three KR cell replicates was used that had been co-treated with progesterone plus onapristone; and three WT cell replicates were used that had been treated with vehicle control (ethanol) (n=3 for each of the two groups). […]

Experiment [6] deals with MAP1A and RGS2 mRNA in T47D cells stably expressing WT PR. As to the kind of experiment: RT-qPCR with epidermal growth factor (EGF) treatment in T47D cells expressing WT PR. The class given is cell-based, human. The protocol: For RT-qPCR assays involving epidermal growth factor (EGF) treatment, cells were plated at 5×10^5 cells/well in 6-well dishes and serum starved for 2 days in modified IMEM. Cells were pre-treated with 100 ng/ml EGF (Sigma, catalog #E9644) before treatment with R5020 (10^−8 M).
(In qPCR the cycle at which signal appears reflects the starting amount.)

The mark [7] stands for this setting: pre-treatment with U0126 5 uM for 30 min.

Results on seven compounds are retold here after patent publication US10501800B2, “Breast cancer prognosis” (Regents of the University of Minnesota, priority 2012, dated 2019).

Entries after “also recorded” stand apart in the source; their conditions may differ.

Procedure for PR protein expression: Poly (ADP)-ribose polymerase 1 (PARP) cleavage assays were used to measure the level of apoptosis in cell cultures after treatment with cytotoxic concentrations of doxorubicin. T47D cells expressing inducible PR were plated in 10 cm dishes (2×10^6 cells/dish) in cMEM and induced with AP21967 (10^−9 M). Cells were washed, induced, and serum starved for 4 d. Cells were then treated with R5020 (10^−8M) for 6 h before adding doxorubicin (8 uM) to dishes for 24 h. Protein was harvested using standard RIPA lysis buffer, subjected to SDS-PAGE and western blotting using cleaved-PARP and PR antibodies. Beta-actin western blotting was performed for sample loading controls.

`COc1cccc2c1C(=O)c1c(O)c3c(c(O)c1C2=O)C[C@@](O)(C(=O)CO)C[C@@H]3O[C@H]1C[C@H](N)[C@H](O)[C@H](C)O1` [Doxorubicin, doxorubicin]: the “WT and KR PR protein expression” value with PR protein expression is recorded as “reduced”.

`CCC(=O)[C@@]1(C)CC[C@H]2[C@@H]3CCC4=CC(=O)CCC4=C3CC[C@@]21C` [R5020]: in experiment [1] (R5020 10^−8 M, 6 h), the ACOT6 expression result was “induced”, the “upregulation of CHN2 mRNA” value is 17 fold and the “upregulation of RGS2 mRNA” value stood at 26 fold. Also, the “RGS2 expression response to R5020” value in experiment [2] (T47D cells expressing KR PR) is approximately 20 fold. Moreover, the “RGS2 expression response to R5020” value in experiment [2] (T47D cells expressing WT PR) is approximately 2 fold. The “PR-B Ser294 phosphorylation” value in experiment [3] (R5020 treatment) is recorded as “elevated”. Also, the cell growth entry in experiment [4] is “grew faster”.

Turning to `N#CC(=C(/N)Sc1ccccc1N)/C(C#N)=C(\N)Sc1ccccc1N` [U0126], the “R5020-induced ACOT6 expression (control gene)” value in experiment [1] (MEK kinase inhibition, U0126 5 uM) was “completely insensitive”. Further, the “R5020-induced CHN2 and RGS2 expression” value in experiment [1] (setting [7]) is recorded as “partially, but significantly, diminished”. Further, the “R5020-induced PR Ser294 phosphorylation” value in experiment [3] (setting [7]) was “blocked”.

In the case of `C/C=C\[C@]1(O)CC[C@H]2[C@@H]3CCC4=CC(=O)CCC4=C3[C@@H](c3ccc(N(C)C)cc3)C[C@@]21C` [aglepristone, (8S,11R,13S,14S,17R)-11-(4-dimethylaminophenyl)-17-hydroxy-13-methyl-17-[(Z)-prop-1-enyl]-1,2,6,7,8,11,12,14,15,16-decahydrocyclopenta[a]phenanthren-3-one], the “expression of progesterone-regulated PR target genes” value in experiment [5] (6 h) was “caused many PR target genes to become upregulated”. The agonistic activity entry in experiment [5] (cells expressing hyperactive / SUMO-deficient PR (KR)) is on record as “substantial agonistic activity; also recorded: agonistic properties”.

`CN(C)c1ccc([C@H]2C[C@]3(C)[C@@H](CC[C@]3(O)CCCO)[C@@H]3CCC4=CC(=O)CCC4=C32)cc1` [onapristone, (8S,11R,13R,14S,17S)-11-[4-(dimethylamino)phenyl]-17-hydroxy-17-(3-hydroxypropyl)-13-methyl-1,2,6,7,8,11,12,14,15,16-decahydrocyclopenta[a]phenanthren-3-one]: the “number of the 29 KR>WT genes stimulated by onapristone treatment alone” value in experiment [5] (KR cells, onapristone alone) is “none”. The “number of the 29 KR>WT genes stimulated by onapristone plus P4 treatment” value in experiment [5] (KR cells, onapristone plus P4) came out at 13 genes. Moreover, the “number of genes significantly differentially expressed, KR cells (onapristone plus progesterone) vs WT cells (ethanol)” value in experiment [5] (KR treated with onapristone plus progesterone, WT treated with vehicle control) stood at 5 genes. Besides, the “expression of progesterone-regulated PR target genes” value in experiment [5] (6 h) is recorded as “did not cause these PR target genes to be upregulated; also recorded: do not stimulate gene expression”. Also, the “number of genes significantly differentially expressed, WT cells (progesterone plus onapristone) vs WT cells (ethanol)” value in experiment [5] (WT cells) is “only one gene”. For the same compound, the “number of genes significantly differentially expressed between KR and WT cells” value in experiment [5] (both cell lines co-treated with progesterone plus the antiprogestin) worked out at 8 genes. In experiment [5] (both cell lines co-treated with progesterone plus the antiprogestin, with the exception of one gene (CDH10)), the “significant differential expression of the 15 biomarker genes between KR and WT cells” value is listed as “completely annulled”. For the same compound, the antagonist activity result in experiment [5] (cells expressing WT or KR PR) is on record as “effective antagonist”. Further, the “reversal of the effects of progesterone exposure” value in experiment [5] (cells expressing activated PR (KR), onapristone in the presence of progesterone) is on record as “can effectively reverse”. Also, the “inhibition of expression of PR target genes” value in experiment [5] (cells that express hyperactive PR (phosphorylated and deSUMOylated; KR)) is “can successfully inhibit”. For the same compound, the “reversal of transcriptional differences induced by progesterone” value in experiment [5] (cells with a WT PR receptor, progesterone plus onapristone) was “almost completely reverse”.

On to `CC(=O)[C@H]1CC[C@H]2[C@@H]3CCC4=CC(=O)CC[C@]4(C)[C@H]3CC[C@]12C` [progesterone], for which the “gene expression after progesterone (P4) treatment” value in experiment [5] (both WT and KR cells, progesterone 10^−8 M, 6 h) is reported as “significantly upregulated”.

Regarding “EGF: epidermal growth factor (Sigma) (NSDSECPLSHDGYCLHDGVCMYIEALDKYACNCVVGYIGERCQYRDLKWWELR; Epidermal growth factor; UniProt P01133 971-1023, looked up)”, the “MAP1A and RGS2 mRNA expression” value in experiment [6] (EGF alone (100 ng/ml) over a 2-day time course) is “insensitive”. Also, the “progestin stimulated mRNA expression of MAP1A and RGS2” value in experiment [6] (EGF pre-treatment (100 ng/ml) followed by R5020 10^−8 M) is reported as “significantly augmented”.
